From patent US20040028749A1, “Treating inflammation and associated complications” (priority 2000, published 2004)

Tested on: tracheal rings
Test: NO-mediated relaxation of preconstricted tracheal rings
Design: species or system rat
Details: absence of peroxidases
Source text: Normal rats were sacrificed and their trachea removed. Under the dissecting microscope, each trachea was freed of adventitia and fat tissue. A cylindrical airway segment of 3 mm length was isolated from the midtrachea of each animal and placed in a modified Krebs-Henseleit (KH) solution of the following composition (mM): NaCl, 118.2; NaHCO3, […], 4.6; KH2PO4, 1.2; MgSO4, 1.2; CaCl2 and dextrose, […], with a pH adjusted to 7.4. The solution was continuously aerated with 5% […] balanced with O2. […] Generated forces were continuously monitored and recorded on a rectilinear chart recorder. […]
A cumulative concentration-response curve to bethanecol (3×10^−8 to 10^−3 M) was obtained for each cylinder. The concentration of bethanecol that elicited 50-75% of maximal response (ED 50-75) was determined. […] The percent relaxation from the precontracted state was calculated for each cylinder. The percent relaxation in response to EFS was calculated from the reduction in tension (in grams) in relation to baseline tension in the precontracted state, each tracheal segment serving as its own control (before and after EFS exposure). […]
The effect of peroxidases on the concentration dependence of NO-mediated relaxation of preconstricted tracheal rings was quantified. […]

For `[N]=O` [NO, nitric oxide], the “NO concentration at which relaxation reached a maximum” value was ~4 µM.
